Measured values as given in ChEMBL document CHEMBL5029168, “Discovery of novel ID2 antagonists from pharmacophore-based virtual screening as potential therapeutics for glioma” (Bioorg Med Chem, 2021).
The source made the active and inactive calls. The rule behind the calls is not given here.

Key:
GL261 [1] = assay: Cytotoxicity against mouse GL261 cells assessed as reduction in cell viability incubated for 24 hrs by CCK8 assay; assay type: functional, cell-based; conditions: GL261, 24 h
Hs 683 = assay: Cytotoxicity against human Hs 683 cells assessed as reduction in cell viability incubated for 24 hrs by CCK8 assay; assay type: functional, cell-based; conditions: Hs 683, 24 h
U-87 MG [2] = assay: Cytotoxicity against human U87 cells assessed as reduction in cell viability incubated for 24 hrs by CCK8 assay; assay type: functional, cell-based, U-87MG ATCC
U87 [3] = assay: Inhibition of ID2/KDR signalling in human U87 cells assessed as reduction in MMP9 expression at 12.5 to 50 uM measured after 24 hrs by western blot analysis; assay type: cell-based; conditions: filed as antagonist, dose 12.5-50 µM
U-87 MG [4] = assay: Induction of apoptosis in human U87 cells assessed as viable cells at 25 uM measured after 24 hrs by annexin V-FITC/propidium iodide staining based flow cytometry analysis (reference value: 89.6%); assay type: functional, U-87MG ATCC; conditions: read-out: Activity
[5] = Toxicity in NCG mouse xenografted with human U87 cells assessed as heart damage at 2.5 mg/kg, ip administered every other day for 5 days and measured after 7 days post first dose by H and E staining based assay; assay type: organism-based; conditions: in vivo, 168 h, time 7 day
U87 [6] = assay: Inhibition of ID2/KDR signalling in human U87 cells assessed as reduction in ID2 mRNA expression at 12.5 to 50 uM measured after 24 hrs by qRT-PCR analysis; assay type: cell-based; conditions: filed as antagonist, dose 12.5-50 µM
Homo sapiens [7] = species on record: Homo sapiens; assay: Binding affinity to CM5 sensor chip immobilized human ID2 assessed as association constant by SPR analysis; conditions: filed as antagonist
GL261 [8] = assay: Induction of apoptosis in mouse GL261 cells assessed as late apoptotic cells at 25 uM measured after 24 hrs by annexin V-FITC/propidium iodide staining based flow cytometry analysis (reference value: 1.01%); assay type: functional
[9] = Toxicity in NCG mouse […] with human U87 cells assessed as kidney damage at 2.5 mg/kg, ip administered every other day for 5 days and measured after 7 days post first dose by H and E staining based assay; assay type: organism-based; conditions: in vivo, 168 h, time 7 day
U87 [10] = assay: Inhibition of ID2/KDR signalling in human U87 cells assessed as reduction in MMP2 expression at 12.5 to 50 uM measured after 24 hrs by western blot analysis; assay type: cell-based; conditions: filed as antagonist, dose 12.5-50 µM
GL261 [11] = assay: Induction of apoptosis in mouse GL261 cells assessed as late apoptotic cells at 50 uM measured after 24 hrs by annexin V-FITC/propidium iodide staining based flow cytometry analysis (reference value: 1.01%); assay type: functional
U-87 MG [12] = assay: Induction of apoptosis in human U87 cells assessed as early apoptotic cells at 25 uM measured after 24 hrs by annexin V-FITC/propidium iodide staining based flow cytometry analysis (reference value: 4.35%); assay type: functional, U-87MG ATCC
U87 [13] = assay: Inhibition of ID2/KDR signalling in human U87 cells assessed as decrease in ID2 protein level measured after 24 hrs by western blot analysis; assay type: cell-based; conditions: filed as antagonist
U87 [14] = assay: Inhibition of ID2/KDR signalling in human U87 cells assessed as decrease in VEGFA protein level measured after 24 hrs by western blot analysis; assay type: cell-based; conditions: filed as antagonist
U-87 MG [15] = assay: Antiinvasive activity against human U87 cells assessed as inhibition of cell invasion measured after 24 hrs by crystal violet staining based inverted microscopic analysis; assay type: functional; conditions: U-87MG ATCC
GL261 [16] = assay: Induction of apoptosis in mouse GL261 cells assessed as viable cells at 50 uM measured after 24 hrs by annexin V-FITC/propidium iodide staining based flow cytometry analysis (reference value: 96.1%); assay type: functional; conditions: read-out: Activity
U-87MG ATCC [17] = assay: Antitumor activity against human U87 cells xenografted in NCG mouse assessed as reduction in CD31 marker expression in tumor at 2.5 mg/kg, ip administered every other day for 5 days and measured after 7 days post first dose by immunohistochemical analysis; assay type: functional, organism-based; conditions: time 7.0 day
GL261 [18] = assay: Antiinvasive activity against mouse GL261 cells assessed as inhibition of cell invasion measured after 24 hrs by crystal violet staining based inverted microscopic analysis; assay type: functional
U87 [19] = assay: Inhibition of ID2/KDR signalling in human U87 cells assessed as decrease in KDR protein level measured after 24 hrs by western blot analysis; assay type: cell-based; conditions: filed as antagonist
U87 [20] = assay: Inhibition of ID2/KDR signalling in human U87 cells assessed as increase in PTEN expression at 12.5 to 50 uM measured after 24 hrs by western blot analysis; assay type: cell-based; conditions: filed as antagonist, dose 12.5-50 µM
NIH3T3 = assay: Cytotoxicity against mouse 3T3 cells assessed as reduction in cell viability at up to 100 nM incubated for 24 hrs by CCK8 assay; assay type: cell-based; conditions: nih3t3, 24 h
U-87 MG [21] = assay: Induction of apoptosis in human U87 cells assessed as late apoptotic cells at 25 uM measured after 24 hrs by annexin V-FITC/propidium iodide staining based flow cytometry analysis (reference value: 2.56%); assay type: functional, U-87MG ATCC
[22] = Aqueous solubility of compound at up to 80 uM measured after 10 mins by optical microscopic analysis; assay type: physicochemical; conditions: buffer
U-87 MG [23] = assay: Induction of apoptosis in human U87 cells assessed as viable cells at 50 uM measured after 24 hrs by annexin V-FITC/propidium iodide staining based flow cytometry analysis (reference value: 89.6%); assay type: functional, U-87MG ATCC; conditions: read-out: Activity
GL261 [24] = assay: Induction of apoptosis in mouse GL261 cells assessed as viable cells at 25 uM measured after 24 hrs by annexin V-FITC/propidium iodide staining based flow cytometry analysis (reference value: 96.1%); assay type: functional; conditions: read-out: Activity
GL261 [25] = assay: Antimigratory activity against mouse GL261 cells assessed as reduction in wound closure at 12.5 uM measured up to 24 hrs by scratch wound healing assay (Rvb =63.3+/-0.78%); assay type: functional; set-up: scale not given: the % may be the effect or the level left; conditions: time hrs <=24
L02 = assay: Cytotoxicity against human L02 cells assessed as reduction in cell viability at up to 100 nM incubated for 24 hrs by CCK8 assay; assay type: cell-based; conditions: l02, 24 h
U-87MG ATCC [26] = assay: Antitumor activity against human U87 cells xenografted in NCG mouse assessed as reduction in Ki67 expression in tumor at 2.5 mg/kg, ip administered every other day for 5 days and measured after 7 days post first dose by immunohistochemical analysis; assay type: functional, organism-based; conditions: time 7.0 day
GL261 [27] = assay: Induction of apoptosis in mouse GL261 cells assessed as dead cells at 50 uM measured after 24 hrs by annexin V-FITC/propidium iodide staining based flow cytometry analysis (reference value: 1.22%); assay type: functional
U-87 MG [28] = assay: Induction of apoptosis in human U87 cells assessed as dead cells at 25 uM measured after 24 hrs by annexin V-FITC/propidium iodide staining based flow cytometry analysis (Rvb =3.52 %); assay type: functional, U-87MG ATCC
GL261 [29] = assay: Induction of apoptosis in mouse GL261 cells assessed as early apoptotic cells at 50 uM measured after 24 hrs by annexin V-FITC/propidium iodide staining based flow cytometry analysis (reference value: 1.61%); assay type: functional
Homo sapiens [30] = species on record: Homo sapiens; assay: Binding affinity to CM5 sensor chip immobilized human ID2 assessed as maximum response by SPR analysis; conditions: filed as antagonist
GL261 [31] = assay: Antimigratory activity against mouse GL261 cells assessed as inhibition of cell migration measured after 24 hrs by crystal violet staining based inverted microscopic analysis; assay type: functional
[32] = Binding affinity to CM5 sensor chip immobilized human ID2 assessed as dissociation constant by SPR analysis
U87 [33] = assay: Inhibition of ID2/KDR signalling in human U87 cells assessed as reduction in KDR mRNA expression at 12.5 to 50 uM measured after 24 hrs by qRT-PCR analysis; assay type: cell-based; conditions: filed as antagonist, dose 12.5-50 µM
U-87 MG [34] = assay: Antimigratory activity against human U87 cells assessed as reduction in wound closure at 12.5 uM measured up to 24 hrs by scratch wound healing assay (Rvb =61.5+/-10.21%); assay type: functional, U-87MG ATCC; set-up: scale not given: the % may be the effect or the level left; conditions: time hrs <=24
[35] = Toxicity in NCG mouse xenografted with human U87 cells assessed as reduction in body weight at 2.5 mg/kg, ip administered every other day for 5 days and measured after 12 days; assay type: organism-based; conditions: in vivo, 288 h, time 12 day
U-87 MG [36] = assay: Induction of apoptosis in human U87 cells assessed as dead cells at 50 uM measured after 24 hrs by annexin V-FITC/propidium iodide staining based flow cytometry analysis (Rvb =3.52 %); assay type: functional, U-87MG ATCC
U-87 MG [37] = assay: Induction of apoptosis in human U87 cells assessed as late apoptotic cells at 50 uM measured after 24 hrs by annexin V-FITC/propidium iodide staining based flow cytometry analysis (reference value: 2.56%); assay type: functional, U-87MG ATCC
GL261 [38] = assay: Induction of apoptosis in mouse GL261 cells assessed as early apoptotic cells at 25 uM measured after 24 hrs by annexin V-FITC/propidium iodide staining based flow cytometry analysis (reference value: 1.67%); assay type: functional
[39] = Toxicity in NCG mouse […] with human U87 cells assessed as liver damage at 2.5 mg/kg, ip administered every other day for 5 days and measured after 7 days post first dose by H and E staining based assay; assay type: organism-based; conditions: in vivo, 168 h, time 7 day
[40] = Antitumor activity against human U87 cells xenografted in NCG mouse assessed as tumor growth inhibition at 2.5 mg/kg, ip administered every other day for 5 days relative to control; assay type: functional, U-87MG ATCC; set-up: scale not given: the % may be the effect or the level left; conditions: time 5 day
[41] = Antitumor activity against human U87 cells xenografted in NCG mouse assessed as reduction in tumor weight at 2.5 mg/kg, ip administered every other day for 5 days and measured after 12 days relative to control; assay type: functional, U-87MG ATCC; set-up: scale not given: the % may be the effect or the level left; conditions: time 12 day
U-87 MG [42] = assay: Induction of apoptosis in human U87 cells assessed as early apoptotic cells at 50 uM measured after 24 hrs by annexin V-FITC/propidium iodide staining based flow cytometry analysis (reference value: 4.35%); assay type: functional, U-87MG ATCC
[43] = Toxicity in NCG mouse […] with human U87 cells assessed as lung damage at 2.5 mg/kg, ip administered every other day for 5 days and measured after 7 days post first dose by H and E staining based assay; assay type: organism-based; conditions: in vivo, 168 h, time 7 day
U-87 MG [44] = assay: Antimigratory activity against human U87 cells assessed as inhibition of cell migration measured after 24 hrs by crystal violet staining based inverted microscopic analysis; assay type: functional; conditions: U-87MG ATCC

**Q.** With `Cc1ccc(CNC(=O)Cn2c(CO)cnc2SCC(=O)Nc2ccc3c(c2)OCO3)cc1` as the molecule, how does the IC50 (GL261 [1]) read?
**A.** 50.1 µM

**Q.** What about the IC50 (Hs 683) of the same molecule?
**A.** 41.5 µM

**Q.** And the IC50 (U-87 MG [2])?
**A.** 37.8 µM

**Q.** Which results are given for `O=C(C[C@@]1(O)C(=O)N(Cc2cccc(Cl)c2)c2ccccc21)c1ccccn1`?
**A.** inhibition (U87 [3]): Active; viability at 25 µM (U-87 MG [4]): 8.04%; Activity [5]: Non-Toxic; inhibition (U87 [6]): Active; Ka (Homo sapiens [7]): 24.8 M⁻¹ s⁻¹; Activity (GL261 [8]): 16%; Activity [9]: Non-Toxic; inhibition (U87 [10]): Active; Activity (GL261 [11]): 69.3%; Activity (U-87 MG [12]): 45.4%; inhibition (U87 [13]): Dose-Dependent Effect; inhibition (U87 [14]): Dose-Dependent Effect; Activity (U-87 MG [15]): Dose-Dependent Effect; viability at 50 µM (GL261 [16]): 6.58%; Activity (U-87MG ATCC [17]): Active; Activity (GL261 [18]): Dose-Dependent Effect; inhibition (U87 [19]): Dose-Dependent Effect; IC50 (GL261 [1]): 38.2 µM; inhibition (U87 [20]): Active; Activity (NIH3T3): Non-Toxic; Activity (U-87 MG [21]): 43.9%; solubility [22]: Soluble; viability at 50 µM (U-87 MG [23]): 2.61%; viability at 25 µM (GL261 [24]): 70.2%; Activity (GL261 [25]): 13.11%; Activity (L02): Non-Toxic; Activity (U-87MG ATCC [26]): Active; Activity (GL261 [27]): 11%; Activity (U-87 MG [28]): 2.72%; Activity (GL261 [29]): 13.1%; Rmax (Homo sapiens [30]): 83.6 RU; Activity (GL261 [31]): Dose-Dependent Effect; Kd [32]: 0.129 µM; inhibition (U87 [33]): Active; Activity (U-87 MG [34]): 5.59%; Activity [35]: Non-Toxic; Activity (U-87 MG [36]): 1.29%; IC50 (Hs 683): 34.2 µM; Activity (U-87 MG [37]): 68.8%; Activity (GL261 [38]): 8.24%; Activity [39]: Non-Toxic; Activity [40]: 49.7%; Activity [41]: 57.8%; Activity (U-87 MG [42]): 27.3%; Activity [43]: Non-Toxic; Activity (U-87 MG [44]): Dose-Dependent Effect; IC50 (U-87 MG [2]): 27.3 µM

**Q.** What does the source list for `Cc1ccc(NC(=O)C[C@H]2SC(NC(c3ccc(F)cc3)c3c(O)[nH]c(=O)[nH]c3=O)=NC2=O)cc1C` (stereo partly specified)?
**A.** IC50 (GL261 [1]): 47.9 µM; IC50 (Hs 683): 40.8 µM; IC50 (U-87 MG [2]): 46.5 µM

**Q.** For `NC(=O)C1CCN(C(=O)c2ccc(CSc3nc4cccnc4n3Cc3ccccc3)cc2)CC1`, which IC50 (GL261 [1]) is on record?
**A.** 56.7 µM

**Q.** And the IC50 (Hs 683)?
**A.** 62.3 µM

**Q.** What about the IC50 (U-87 MG [2]) of the same molecule?
**A.** 60.3 µM
